Data on 4 compounds can be found in the NIST ThermoML archive (doi:10.1016/j.tca.2012.04.032).

Numbers after ± are expanded uncertainties.

Data set [1] can be described thus: Molar enthalpy of transition or fusion. The following applies: Crystal; DSC.
The conditions of data set [2]: Crystal; DTA.

Turning to `c1ccc(-c2nc(-c3ccccc3)c(-c3ccccc3)[nH]2)cc1` [2,4,5-triphenyl-1H-imidazole], the “Molar enthalpy of transition or fusion” value in data set [1] was 8.92 ± 0.194 kcal/mol. Also, the Triple point temperature in data set [2] was 550.95 ± 0.7 K.

Regarding `c1ccc(-c2ncc[nH]2)cc1` [2-phenyl-1H-imidazole], in data set [1], the “Molar enthalpy of transition or fusion” value is 4.26 ± 0.108 kcal/mol. For the same compound, in data set [2], the Triple point temperature stood at 419.95 ± 0.7 K.

For the compound `c1ccc(-c2nc[nH]c2-c2ccccc2)cc1` [4,5-diphenylimidazole], in data set [1], the “Molar enthalpy of transition or fusion” value turned out to be 7.73 ± 0.17 kcal/mol. Also, the Triple point temperature in data set [2] was determined as 504.95 ± 0.7 K.

For `c1ccc2cc3ccccc3cc2c1` [anthracene], the “Molar enthalpy of transition or fusion” value in data set [1] was 6.1 ± 0.136 kcal/mol. Moreover, the Triple point temperature in data set [2] is on record as 487.75 ± 0.7 K.
